Where two headings read alike, the source gives them in different places.
Assay: Solubility test of metal salts/chelates in glycol and other solvents
Procedure: The following mixtures were prepared from anhydrous copper-EDTA and the solvents described below.
Each time 1,2-propanediol was used as solvent. EDTA is ethylene-diamine tetra-acetic acid; DTPA is diethylenetriaminepentaacetic acid. […]

[1] = 1 wt % Cu.EDTA in the named solvent, same procedure as examples 1-9

CC(N)CO (centres unmarked) [2-aminopropanol]
clear solution with 1 wt % Cu.EDTA (comparison solvents): None of these solvents were able to provide a clear solution

C[S+](C)[O-] [DMSO]
clear solution with 1 wt % Cu.EDTA (comparison solvents): None of these solvents were able to provide a clear solution

OCCCCO [1,4-butanediol]
clear solution with 1 wt % Cu.EDTA (comparison solvents) [1]: None of these solvents were able to provide a clear solution

CC(C)O [iso-propylalcohol]
clear solution with 1 wt % Cu.EDTA (comparison solvents): None of these solvents were able to provide a clear solution

CC(C)=O [acetone]
clear solution with 1 wt % Cu.EDTA (comparison solvents) [1]: None of these solvents were able to provide a clear solution

Source: patent US20210300832A1, “Micronutrient Concentrate and use thereof” (FINE AGROCHEMICALS LIMITED, priority 2018, published 2021)
